{"source": "paper PMC10004634", "about": "(PLOS ONE, 2023)", "assay_in_all_cases": "biochemical", "set-up_in_all_cases": "KINOMEscan scanMAX competition binding, DNA-tagged kinases, qPCR read-out, percent control at 300 nM", "key": {"EGFR(E746-A750del)": {"target": "EGFR(E746-A750del) (Homo sapiens, UniProt P00533, DEL746-750)"}, "[1]": {"target": "T1, ABL1(Q252H)-phosphorylated (Homo sapiens, UniProt P00519, Q252H)", "T1 construct": "phosphorylated"}, "MRCKA": {"target": "T2, MRCKA (Homo sapiens, UniProt Q5VT25)", "T2 construct": "gene CDC42BPA"}, "ARK5": {"target": "T3, ARK5 (Homo sapiens, UniProt O60285)", "T3 construct": "gene NUAK1"}, "PDPK1": {"target": "PDPK1 (Homo sapiens, UniProt O15530)"}, "AKT2": {"target": "AKT2 (Homo sapiens, UniProt P31751)"}, "CSNK1G2": {"target": "CSNK1G2 (Homo sapiens, UniProt P78368)", "sequence (P78368 whole entry)": "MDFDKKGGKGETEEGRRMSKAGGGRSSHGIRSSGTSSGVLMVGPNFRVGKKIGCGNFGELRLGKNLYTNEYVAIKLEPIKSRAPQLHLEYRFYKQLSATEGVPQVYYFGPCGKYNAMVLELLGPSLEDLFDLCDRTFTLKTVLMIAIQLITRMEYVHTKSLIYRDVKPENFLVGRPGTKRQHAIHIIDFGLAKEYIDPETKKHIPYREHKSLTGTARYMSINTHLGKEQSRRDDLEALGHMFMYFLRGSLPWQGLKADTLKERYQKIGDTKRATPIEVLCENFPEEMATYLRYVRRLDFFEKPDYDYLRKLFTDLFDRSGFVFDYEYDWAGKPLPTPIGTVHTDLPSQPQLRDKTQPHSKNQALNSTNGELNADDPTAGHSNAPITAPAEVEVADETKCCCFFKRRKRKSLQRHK"}, "CSNK1D": {"target": "CSNK1D (Homo sapiens, UniProt P48730)"}, "MLK3": {"target": "T4, MLK3 (Homo sapiens, UniProt Q16584)", "T4 construct": "gene MAP3K11"}, "NLK": {"target": "NLK (Homo sapiens, UniProt Q9UBE8)", "sequence (Q9UBE8 whole entry)": "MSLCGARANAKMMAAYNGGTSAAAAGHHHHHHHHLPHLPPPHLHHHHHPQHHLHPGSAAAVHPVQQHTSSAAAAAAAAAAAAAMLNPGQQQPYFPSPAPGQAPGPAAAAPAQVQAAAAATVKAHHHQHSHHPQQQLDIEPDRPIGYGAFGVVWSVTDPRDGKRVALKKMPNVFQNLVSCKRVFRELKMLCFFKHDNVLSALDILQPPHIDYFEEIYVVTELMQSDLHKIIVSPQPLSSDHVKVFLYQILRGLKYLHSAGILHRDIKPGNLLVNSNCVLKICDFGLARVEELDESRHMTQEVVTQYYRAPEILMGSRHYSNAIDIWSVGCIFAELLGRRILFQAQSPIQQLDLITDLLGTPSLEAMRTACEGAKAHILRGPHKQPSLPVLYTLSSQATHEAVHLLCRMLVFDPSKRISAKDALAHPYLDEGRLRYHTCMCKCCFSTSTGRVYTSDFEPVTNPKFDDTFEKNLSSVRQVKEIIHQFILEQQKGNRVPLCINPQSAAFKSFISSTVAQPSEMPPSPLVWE"}, "PCTK3": {"target": "T5, PCTK3 (Homo sapiens, UniProt Q07002)", "T5 construct": "gene CDK18"}, "ABL1-phosphorylated": {"target": "T6, ABL1-phosphorylated (Homo sapiens, UniProt P00519)", "T6 construct": "phosphorylated"}, "PIK3C2B": {"target": "PIK3C2B (Homo sapiens, UniProt O00750)"}, "CDC2L1": {"target": "T7, CDC2L1 (Homo sapiens, UniProt P21127)", "T7 construct": "gene CDK11B"}, "TRPM6": {"target": "TRPM6 (Homo sapiens, UniProt Q9BX84)"}, "PIK3CA": {"target": "PIK3CA (Homo sapiens, UniProt P42336)", "sequence (P42336 whole entry)": "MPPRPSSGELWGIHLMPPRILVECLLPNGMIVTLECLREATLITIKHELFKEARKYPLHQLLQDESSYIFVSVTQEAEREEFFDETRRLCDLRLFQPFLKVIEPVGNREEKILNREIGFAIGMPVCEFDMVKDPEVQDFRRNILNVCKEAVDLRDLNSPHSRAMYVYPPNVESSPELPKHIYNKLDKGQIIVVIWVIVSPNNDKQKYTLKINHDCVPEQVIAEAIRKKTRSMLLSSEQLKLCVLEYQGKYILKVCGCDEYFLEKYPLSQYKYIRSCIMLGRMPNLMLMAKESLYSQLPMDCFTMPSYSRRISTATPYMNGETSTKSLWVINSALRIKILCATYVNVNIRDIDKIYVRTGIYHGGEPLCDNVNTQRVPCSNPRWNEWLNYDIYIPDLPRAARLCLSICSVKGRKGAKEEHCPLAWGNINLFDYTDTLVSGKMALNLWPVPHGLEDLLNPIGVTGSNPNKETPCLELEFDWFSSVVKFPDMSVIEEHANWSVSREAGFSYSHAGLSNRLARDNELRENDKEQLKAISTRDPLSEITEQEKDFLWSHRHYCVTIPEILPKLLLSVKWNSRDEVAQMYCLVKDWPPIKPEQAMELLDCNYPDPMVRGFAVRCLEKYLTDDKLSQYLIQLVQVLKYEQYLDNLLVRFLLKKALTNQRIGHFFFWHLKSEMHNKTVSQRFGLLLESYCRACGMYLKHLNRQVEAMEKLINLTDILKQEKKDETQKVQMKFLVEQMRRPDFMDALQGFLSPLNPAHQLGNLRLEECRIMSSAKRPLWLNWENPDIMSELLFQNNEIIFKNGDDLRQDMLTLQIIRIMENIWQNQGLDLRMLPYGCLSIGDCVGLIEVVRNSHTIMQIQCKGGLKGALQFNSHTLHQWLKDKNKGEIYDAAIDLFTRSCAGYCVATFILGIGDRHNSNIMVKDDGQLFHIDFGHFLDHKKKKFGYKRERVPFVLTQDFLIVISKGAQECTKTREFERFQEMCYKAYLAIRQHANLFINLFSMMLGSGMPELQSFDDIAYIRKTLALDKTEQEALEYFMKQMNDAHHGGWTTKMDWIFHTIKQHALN"}, "NEK11": {"target": "NEK11 (Homo sapiens, UniProt Q8NG66)"}, "MAP3K15": {"target": "MAP3K15 (Homo sapiens, UniProt Q6ZN16)"}, "PRKD2": {"target": "PRKD2 (Homo sapiens, UniProt Q9BZL6)", "sequence (Q9BZL6 whole entry)": "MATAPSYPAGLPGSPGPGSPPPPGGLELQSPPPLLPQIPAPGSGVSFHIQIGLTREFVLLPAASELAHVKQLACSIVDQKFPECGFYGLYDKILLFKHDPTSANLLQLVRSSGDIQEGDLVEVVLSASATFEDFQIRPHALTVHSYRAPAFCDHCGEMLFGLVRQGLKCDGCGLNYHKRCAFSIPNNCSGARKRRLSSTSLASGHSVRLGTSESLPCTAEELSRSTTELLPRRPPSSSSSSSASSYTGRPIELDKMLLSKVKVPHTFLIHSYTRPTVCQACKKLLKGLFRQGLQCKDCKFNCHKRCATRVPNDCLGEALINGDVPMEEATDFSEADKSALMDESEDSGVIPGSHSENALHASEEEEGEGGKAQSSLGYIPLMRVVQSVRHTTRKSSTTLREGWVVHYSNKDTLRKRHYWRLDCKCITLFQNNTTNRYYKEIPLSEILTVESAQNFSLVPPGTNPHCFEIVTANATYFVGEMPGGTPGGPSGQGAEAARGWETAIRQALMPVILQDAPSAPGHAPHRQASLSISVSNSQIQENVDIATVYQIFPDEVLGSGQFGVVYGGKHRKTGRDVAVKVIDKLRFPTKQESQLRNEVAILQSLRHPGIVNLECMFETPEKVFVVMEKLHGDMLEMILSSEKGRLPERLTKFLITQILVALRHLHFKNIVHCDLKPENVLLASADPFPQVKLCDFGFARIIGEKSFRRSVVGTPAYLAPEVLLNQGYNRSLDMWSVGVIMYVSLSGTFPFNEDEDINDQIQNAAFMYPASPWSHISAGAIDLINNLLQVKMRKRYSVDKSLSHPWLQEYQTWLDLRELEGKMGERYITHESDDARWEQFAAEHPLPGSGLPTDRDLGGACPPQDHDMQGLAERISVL"}, "[2]": {"target": "T8, RPS6KA5(Kin.Dom.2-C-terminal) (Homo sapiens, UniProt O75582)", "T8 construct": "Kin.Dom.2-C-terminal"}, "WEE2": {"target": "WEE2 (Homo sapiens, UniProt P0C1S8)"}, "KIT(L576P)": {"target": "KIT(L576P) (Homo sapiens, UniProt P10721, L576P)", "sequence (P10721 whole entry L576P)": "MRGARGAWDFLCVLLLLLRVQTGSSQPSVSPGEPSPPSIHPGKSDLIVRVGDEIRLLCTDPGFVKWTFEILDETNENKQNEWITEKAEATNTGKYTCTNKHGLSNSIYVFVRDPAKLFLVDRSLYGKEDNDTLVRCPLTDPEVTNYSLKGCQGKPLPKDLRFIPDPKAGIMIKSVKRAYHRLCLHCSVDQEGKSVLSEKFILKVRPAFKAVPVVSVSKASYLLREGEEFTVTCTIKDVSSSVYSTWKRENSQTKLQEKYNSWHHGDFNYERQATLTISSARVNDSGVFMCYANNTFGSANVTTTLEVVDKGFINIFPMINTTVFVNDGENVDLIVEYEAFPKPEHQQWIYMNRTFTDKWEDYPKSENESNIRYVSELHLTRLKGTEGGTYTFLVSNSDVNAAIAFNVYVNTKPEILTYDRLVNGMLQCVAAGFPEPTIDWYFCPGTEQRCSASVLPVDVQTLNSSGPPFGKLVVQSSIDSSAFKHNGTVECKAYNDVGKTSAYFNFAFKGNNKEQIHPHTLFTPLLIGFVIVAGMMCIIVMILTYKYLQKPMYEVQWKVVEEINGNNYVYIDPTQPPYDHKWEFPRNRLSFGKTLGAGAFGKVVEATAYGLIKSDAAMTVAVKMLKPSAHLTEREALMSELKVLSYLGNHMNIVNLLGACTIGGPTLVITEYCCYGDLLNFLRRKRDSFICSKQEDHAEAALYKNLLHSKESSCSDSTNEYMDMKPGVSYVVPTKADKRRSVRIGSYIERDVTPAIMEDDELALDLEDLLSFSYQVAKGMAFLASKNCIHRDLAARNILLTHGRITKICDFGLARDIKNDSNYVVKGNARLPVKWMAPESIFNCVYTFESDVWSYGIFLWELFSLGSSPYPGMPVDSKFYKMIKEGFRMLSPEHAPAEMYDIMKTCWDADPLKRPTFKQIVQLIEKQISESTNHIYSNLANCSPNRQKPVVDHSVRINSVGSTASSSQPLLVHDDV"}, "NEK9": {"target": "NEK9 (Homo sapiens, UniProt Q8TD19)", "sequence (Q8TD19 whole entry)": "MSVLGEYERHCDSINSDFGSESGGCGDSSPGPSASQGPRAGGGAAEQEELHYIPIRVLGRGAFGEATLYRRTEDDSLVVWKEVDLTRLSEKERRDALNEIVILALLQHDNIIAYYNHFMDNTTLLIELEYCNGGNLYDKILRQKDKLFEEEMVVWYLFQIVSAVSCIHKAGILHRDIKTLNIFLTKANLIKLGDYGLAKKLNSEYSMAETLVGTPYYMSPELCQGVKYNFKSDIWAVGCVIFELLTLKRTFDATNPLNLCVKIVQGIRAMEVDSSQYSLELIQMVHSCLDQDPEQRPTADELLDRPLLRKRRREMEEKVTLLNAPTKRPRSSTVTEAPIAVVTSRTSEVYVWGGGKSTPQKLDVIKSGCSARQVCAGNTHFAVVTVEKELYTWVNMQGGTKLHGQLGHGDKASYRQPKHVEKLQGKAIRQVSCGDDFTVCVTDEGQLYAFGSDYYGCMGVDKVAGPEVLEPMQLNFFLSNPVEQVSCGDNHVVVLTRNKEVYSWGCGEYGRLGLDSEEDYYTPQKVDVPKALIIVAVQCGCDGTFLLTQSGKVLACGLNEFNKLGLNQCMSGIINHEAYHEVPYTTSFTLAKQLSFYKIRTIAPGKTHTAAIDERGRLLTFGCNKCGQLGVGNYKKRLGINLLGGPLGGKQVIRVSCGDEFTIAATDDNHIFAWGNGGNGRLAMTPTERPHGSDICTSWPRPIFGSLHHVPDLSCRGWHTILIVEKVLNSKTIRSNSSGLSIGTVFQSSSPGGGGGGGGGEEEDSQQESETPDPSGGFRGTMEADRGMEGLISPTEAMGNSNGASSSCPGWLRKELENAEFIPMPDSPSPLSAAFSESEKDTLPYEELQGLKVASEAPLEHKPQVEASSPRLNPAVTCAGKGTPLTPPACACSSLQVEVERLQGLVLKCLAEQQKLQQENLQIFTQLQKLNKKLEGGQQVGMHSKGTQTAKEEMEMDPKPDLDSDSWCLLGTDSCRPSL"}, "[3]": {"conditions": "read-out: Percent control / Tirabrutinib"}, "[4]": {"conditions": "read-out: Percent control / Zanubrutinib"}, "[5]": {"conditions": "read-out: Percent control / Acalabrutinib"}, "[6]": {"conditions": "read-out: Percent control / Ibrutinib"}}, "note": "Read-outs that look alike come from different tables or passages of the source."}
{"smiles": "CC#CC(=O)N1CC[C@@H](n2c(=O)n(-c3ccc(Oc4ccccc4)cc3)c3c(N)ncnc32)C1", "note": "[Tirabrutinib]", "values": [{"measurement": "remaining binding at 0.3 µM", "setting": "EGFR(E746-A750del); [3]", "value": 100, "unit": "%"}, {"measurement": "remaining binding at 0.3 µM", "setting": "[1]; [3]", "value": 87, "unit": "%"}]}
{"smiles": "C=CC(=O)N1CCC([C@@H]2CCNc3c(C(N)=O)c(-c4ccc(Oc5ccccc5)cc4)nn32)CC1", "note": "[Zanubrutinib]", "values": [{"measurement": "remaining binding at 0.3 µM", "setting": "MRCKA; [4]", "value": 100, "unit": "%"}, {"measurement": "remaining binding at 0.3 µM", "setting": "ARK5; [4]", "value": 94, "unit": "%"}, {"measurement": "remaining binding at 0.3 µM", "setting": "PDPK1; [4]", "value": 100, "unit": "%"}, {"measurement": "remaining binding at 0.3 µM", "setting": "AKT2; [4]", "value": 82, "unit": "%"}, {"measurement": "remaining binding at 0.3 µM", "setting": "CSNK1G2; [4]", "value": 88, "unit": "%"}, {"measurement": "remaining binding at 0.3 µM", "setting": "CSNK1D; [4]", "value": 100, "unit": "%"}, {"measurement": "remaining binding at 0.3 µM", "setting": "MLK3; [4]", "value": 98, "unit": "%"}, {"measurement": "remaining binding at 0.3 µM", "setting": "NLK; [4]", "value": 80, "unit": "%"}, {"measurement": "remaining binding at 0.3 µM", "setting": "PCTK3; [4]", "value": 92, "unit": "%"}, {"measurement": "remaining binding at 0.3 µM", "setting": "ABL1-phosphorylated; [4]", "value": 77, "unit": "%"}, {"measurement": "remaining binding at 0.3 µM", "setting": "PIK3C2B; [4]", "value": 62, "unit": "%"}, {"measurement": "remaining binding at 0.3 µM", "setting": "CDC2L1; [4]", "value": 90, "unit": "%"}, {"measurement": "remaining binding at 0.3 µM", "setting": "TRPM6; [4]", "value": 63, "unit": "%"}, {"measurement": "remaining binding at 0.3 µM", "setting": "PIK3CA; [4]", "value": 57, "unit": "%"}, {"measurement": "remaining binding at 0.3 µM", "setting": "NEK11; [4]", "value": 98, "unit": "%"}, {"measurement": "remaining binding at 0.3 µM", "setting": "MAP3K15; [4]", "value": 54, "unit": "%"}, {"measurement": "remaining binding at 0.3 µM", "setting": "PRKD2; [4]", "value": 100, "unit": "%"}, {"measurement": "remaining binding at 0.3 µM", "setting": "[2]; [4]", "value": 100, "unit": "%"}]}
{"smiles": "CC#CC(=O)N1CCC[C@H]1c1nc(-c2ccc(C(=O)Nc3ccccn3)cc2)c2c(N)nccn12", "note": "[Acalabrutinib]", "values": [{"measurement": "remaining binding at 0.3 µM", "setting": "MRCKA; [5]", "value": 96, "unit": "%"}, {"measurement": "remaining binding at 0.3 µM", "setting": "ARK5; [5]", "value": 69, "unit": "%"}, {"measurement": "remaining binding at 0.3 µM", "setting": "AKT2; [5]", "value": 87, "unit": "%"}, {"measurement": "remaining binding at 0.3 µM", "setting": "CSNK1G2; [5]", "value": 87, "unit": "%"}, {"measurement": "remaining binding at 0.3 µM", "setting": "CSNK1D; [5]", "value": 85, "unit": "%"}, {"measurement": "remaining binding at 0.3 µM", "setting": "MLK3; [5]", "value": 87, "unit": "%"}, {"measurement": "remaining binding at 0.3 µM", "setting": "NLK; [5]", "value": 78, "unit": "%"}, {"measurement": "remaining binding at 0.3 µM", "setting": "PCTK3; [5]", "value": 90, "unit": "%"}, {"measurement": "remaining binding at 0.3 µM", "setting": "ABL1-phosphorylated; [5]", "value": 95, "unit": "%"}, {"measurement": "remaining binding at 0.3 µM", "setting": "PIK3C2B; [5]", "value": 93, "unit": "%"}, {"measurement": "remaining binding at 0.3 µM", "setting": "EGFR(E746-A750del); [5]", "value": 96, "unit": "%"}, {"measurement": "remaining binding at 0.3 µM", "setting": "CDC2L1; [5]", "value": 93, "unit": "%"}, {"measurement": "remaining binding at 0.3 µM", "setting": "TRPM6; [5]", "value": 96, "unit": "%"}, {"measurement": "remaining binding at 0.3 µM", "setting": "PIK3CA; [5]", "value": 97, "unit": "%"}, {"measurement": "remaining binding at 0.3 µM", "setting": "WEE2; [5]", "value": 89, "unit": "%"}, {"measurement": "remaining binding at 0.3 µM", "setting": "NEK11; [5]", "value": 97, "unit": "%"}, {"measurement": "remaining binding at 0.3 µM", "setting": "[1]; [5]", "value": 86, "unit": "%"}, {"measurement": "remaining binding at 0.3 µM", "setting": "KIT(L576P); [5]", "value": 86, "unit": "%"}, {"measurement": "remaining binding at 0.3 µM", "setting": "NEK9; [5]", "value": 82, "unit": "%"}, {"measurement": "remaining binding at 0.3 µM", "setting": "PRKD2; [5]", "value": 70, "unit": "%"}, {"measurement": "remaining binding at 0.3 µM", "setting": "[2]; [5]", "value": 92, "unit": "%"}]}
{"smiles": "C=CC(=O)N1CCC[C@@H](n2nc(-c3ccc(Oc4ccccc4)cc3)c3c(N)ncnc32)C1", "note": "[Ibrutinib]", "values": [{"measurement": "remaining binding at 0.3 µM", "setting": "PDPK1; [6]", "value": 99, "unit": "%"}, {"measurement": "remaining binding at 0.3 µM", "setting": "WEE2; [6]", "value": 93, "unit": "%"}, {"measurement": "remaining binding at 0.3 µM", "setting": "MAP3K15; [6]", "value": 96, "unit": "%"}, {"measurement": "remaining binding at 0.3 µM", "setting": "KIT(L576P); [6]", "value": 72, "unit": "%"}, {"measurement": "remaining binding at 0.3 µM", "setting": "NEK9; [6]", "value": 94, "unit": "%"}]}
